Data: patent US11919965B2, “Methods of treating multiple myeloma with bispecific anti-BCMA x anti-CD3 antibodies” (Regeneron Pharmaceuticals, Inc., priority 2019, dated 2024)

Experiments:
[1] = tested on: monkey BCMA-MFC; assay: SPR (Biacore 4000) binding kinetics at 25° C.
Method: (§1) The CM5 Biacore sensor surface was derivatized by amine coupling with a monoclonal mouse anti-human Fc antibody (GE, #BR-1008-39) to capture purified anti-BCMA mAbs and anti-BCMA×anti-CD3 bispecific mAbs. All Biacore binding studies were performed in a buffer composed of 0.01M HEPES pH 7.4, 0.15M NaCl, 3 mM EDTA, 0.05% v/v Surfactant P20 (HBS-ET running buffer). […] Antigen samples were then injected over the anti-BCMA and anti-BCMA×anti-CD3 bispecific mAbs captured surfaces at a flow rate of 30 μL/minute. Antibody-reagent association was monitored for 5 minutes while dissociation in HBS-ET running buffer was monitored for 10 minutes. All of the binding kinetics experiments were performed at 25° C. Kinetic association (ka) and dissociation (kd) rate constants were determined by fitting the real-time sensorgrams to a 1:1 binding model using Scrubber 2.0c curve fitting software. Binding dissociation equilibrium constants (KD) and dissociative half-lives (t1/2) were calculated from the kinetic rate constants as: […]

[2] = tested on: monkey BCMA-MMH; assay: SPR (Biacore 4000) binding kinetics at 25° C.
Method: as §1

[3] = tested on: BCMA-expressing MOLP-8 multiple myeloma tumors; assay: Xenogenic tumor model, MOLP-8 + human PBMC s.c. in NSG mice, dose response (Example 13); assay type: in vivo, mouse
Method: To determine the in vivo efficacy of anti-BCMA×anti-CD3 bispecific antibodies (Abs), a xenogenic tumor study was performed. Immunodeficient NOD.Cg-Prkdc^scidII2rg^tm1Wjl/SzJ (NSG) mice were subcutaneously implanted with a mixture of 5×10^6 BCMA-expressing MOLP-8 human multiple myeloma tumor cells and 1×10^6 human peripheral blood mononuclear cells (PBMC) isolated from a normal, healthy donor. […] The mice were administered these Abs twice per week for a total of seven doses, and tumor growth was assessed over 56 days. While the BCMA+ MOLP-8 tumors grew similarly in the vehicle- and CD3-binding control-treated mice, both BCMA×CD3 Abs that were tested prevented the growth of tumors in a dose-dependent manner in vivo.
Implantation and measurement of xenogenic tumors: NSG mice were subcutaneously implanted with a mixture of 5×10^6 BCMA-expressing MOLP-8 multiple myeloma cells and 1×10^6 PBMC derived from a normal, healthy donor. […] The mice were administered Abs twice per week for a total of seven doses. Tumor growth was measured by caliper twice per week for the duration of the experiment.
Calculation of xenogenic tumor growth and inhibition: In order to determine tumor volume by external caliper, the greatest longitudinal diameter (length in mm) and the greatest transverse diameter (width in mm) were determined. Tumor volumes based on caliper measurements were calculated by the formula: Volume (mm^3)=(length× width^2)/2.

[4] = tested on: BCMA+ OPM-2-luciferase tumors; assay: Xenogenic tumor model, i.v. OPM-2-luciferase in PBMC-engrafted NSG mice, bioluminescence (Example 15); assay type: in vivo, mouse; details: 0.4 mg/kg
Method: (§2) To determine the in vivo efficacy of anti-BCMA×anti-CD3 bispecific antibodies (Abs), a xenogenic tumor study was performed. On day 0, immunodeficient NOD.Cg-Prkdc^scidII2rg^tm1Wjl/SzJ (NSG) mice were intravenously administered 2×10^6 BCMA^+ OPM-2 human multiple myeloma tumor cells that were engineered to also express firefly luciferase (OPM-2-luciferase cells). On day 10, the mice were intraperitoneally injected with 4×10^6 human peripheral blood mononuclear cells (PBMC) from a normal, healthy donor. […] The mice were administered these Abs twice more on days 25 and 28, for a total of three doses. Tumor growth was assessed through day 61 by measuring tumor bioluminescence (BLI) in anesthetized animals. As a positive control, a group of mice (n=5) was given only OPM-2-luciferase cells, but not PBMC or antibody.
as §2, with “Implantation and measurement” for “To determine the in vivo efficacy”, “of” for “of anti-BCMA×anti-CD3 bispecific antibodies (Abs), a”, “tumors:” for “tumor study was performed.”, “NOD.Cg-Prkdc^scidII2rg^tm1Wkl/SzJ” for “NOD.Cg-Prkdc^scidII2rg^tm1Wjl/SzJ”
Measurement of xenogenic tumor growth: BLI imaging was used to measure tumor burden. Mice were injected IP with 150 mg/kg of the luciferase substrate D-luciferin suspended in PBS. Five minutes after this injection, BLI imaging of the mice was performed under isoflurane anesthesia using the Xenogen IVIS system. Image acquisition was carried out with the field of view at D, subject height of 1.5 cm, and medium binning level with automatic exposure time determined by the Living Image Software. BLI signals were extracted using Living Image software: regions of interest were drawn around each tumor mass and photon intensities were recorded as p/s/cm2/sr.

Chain of monkey BCMA-MMH (as listed by the source): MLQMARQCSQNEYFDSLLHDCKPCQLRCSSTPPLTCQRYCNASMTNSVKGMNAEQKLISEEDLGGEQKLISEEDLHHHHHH
Chain of monkey BCMA-MFC (as listed by the source): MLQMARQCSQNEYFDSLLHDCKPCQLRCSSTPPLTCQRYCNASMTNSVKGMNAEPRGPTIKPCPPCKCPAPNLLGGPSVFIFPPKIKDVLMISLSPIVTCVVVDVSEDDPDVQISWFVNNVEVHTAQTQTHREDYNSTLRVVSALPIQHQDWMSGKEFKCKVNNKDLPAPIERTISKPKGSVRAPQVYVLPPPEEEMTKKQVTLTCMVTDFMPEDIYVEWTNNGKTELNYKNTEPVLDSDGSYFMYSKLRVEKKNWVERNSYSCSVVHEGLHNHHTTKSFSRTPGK

## REGN5458: anti-BCMA×anti-CD3 bispecific antibody: mAb21581 BCMA heavy chain, mAb7221G CD3 heavy chain and common light chain; SEQ ID NOs 126, 127, 129
[1]
  ka: 528000 M⁻¹ s⁻¹
  kd: 8.8e-05 s⁻¹
[2]
  ka: 182000 M⁻¹ s⁻¹
  kd: 0.00909 s⁻¹
[3]; 0.04 mg/kg
  Average Tumor Size (mm3) ± SEM on Day 3: 9.3 ± 2.4 mm3
  Average Tumor Size (mm3) ± SEM on Day 7: 18.3 ± 5.0 mm3
  Average Tumor Size (mm3) ± SEM on Day 10: 73.9 ± 25.7 mm3
  Average Tumor Size (mm3) ± SEM on Day 14: 255.4 ± 79.7 mm3
  Average Tumor Size (mm3) ± SEM on Day 17: 494.3 ± 144.3 mm3
  Average Tumor Size (mm3) ± SEM on Day 21: 1373.0 ± 366.6 mm3
  Average Tumor Size (mm3) ± SEM on Day 23: 1882.3 ± 551.5 mm3
  Average Tumor Size (mm3) ± SEM on Day 28: 2542.5 ± 613.3 mm3
  Average Tumor Size (mm3) ± SEM on Day 31: 2906.1 ± 532.6 mm3
  Average Tumor Size (mm3) ± SEM on Day 35: 3538.0 ± 0.0 mm3
[3]; 0.4 mg/kg
  Average Tumor Size (mm3) ± SEM on Day 3: 13.5 ± 1.5 mm3
  Average Tumor Size (mm3) ± SEM on Day 7: 1.0 ± 1.0 mm3
  Average Tumor Size (mm3) ± SEM on Day 10: 0 ± 0 mm3
  Average Tumor Size (mm3) ± SEM on Day 14: 0 ± 0 mm3
  Average Tumor Size (mm3) ± SEM on Day 17: 1.7 ± 1.7 mm3
  Average Tumor Size (mm3) ± SEM on Day 21: 5.3 ± 5.3 mm3
  Average Tumor Size (mm3) ± SEM on Day 23: 9.7 ± 9.7 mm3
  Average Tumor Size (mm3) ± SEM on Day 28: 47.4 ± 47.4 mm3
  Average Tumor Size (mm3) ± SEM on Day 31: 104.7 ± 92.6 mm3
  Average Tumor Size (mm3) ± SEM on Day 35: 375.1 ± 307.5 mm3
  Average Tumor Size (mm3) ± SEM on Day 42: 968.8 ± 689.2 mm3
  Average Tumor Size (mm3) ± SEM on Day 56: 1742.4 ± 635.2 mm3
[3]; 4 mg/kg
  Average Tumor Size (mm3) ± SEM on Day 3: 12.5 ± 1.3 mm3
  Average Tumor Size (mm3) ± SEM on Day 7: 0 ± 0 mm3
  Average Tumor Size (mm3) ± SEM on Day 10: 0 ± 0 mm3
  Average Tumor Size (mm3) ± SEM on Day 14: 0 ± 0 mm3
  Average Tumor Size (mm3) ± SEM on Day 17: 14.5 ± 7.3 mm3
  Average Tumor Size (mm3) ± SEM on Day 21: 102.7 ± 66.2 mm3
  Average Tumor Size (mm3) ± SEM on Day 23: 193.3 ± 117.7 mm3
  Average Tumor Size (mm3) ± SEM on Day 28: 627.4 ± 318.1 mm3
  Average Tumor Size (mm3) ± SEM on Day 31: 1018.5 ± 498.3 mm3
  Average Tumor Size (mm3) ± SEM on Day 35: 1342.9 ± 629.6 mm3
  Average Tumor Size (mm3) ± SEM on Day 42: 2363.0 ± 890.2 mm3
  Average Tumor Size (mm3) ± SEM on Day 49: 1683.5 ± 1683.5 mm3
  Average Tumor Size (mm3) ± SEM on Day 56: 3108.1 ± 3108.1 mm3
[4]
  Radiance [p/s/cm2^2/sr] 26 days post-implantation (mean ± SEM): 1.73E+06 ± 8.69E+05 p/s/cm2^2/sr
  Radiance [p/s/cm2^2/sr] 31 days post-implantation (mean ± SEM): 3.50E+06 ± 2.42E+06 p/s/cm2^2/sr
  Radiance [p/s/cm2^2/sr] 34 days post-implantation (mean ± SEM): 4.85E+06 ± 3.24E+06 p/s/cm2^2/sr
  Radiance [p/s/cm2^2/sr] 38 days post-implantation (mean ± SEM): 5.30E+06 ± 3.44E+06 p/s/cm2^2/sr
  Radiance [p/s/cm2^2/sr] 40 days post-implantation (mean ± SEM): 5.06E+06 ± 3.36E+06 p/s/cm2^2/sr
  Radiance [p/s/cm2^2/sr] 47 days post-implantation (mean ± SEM): 7.76E+05 ± 7.85E+04 p/s/cm2^2/sr
  Radiance [p/s/cm2^2/sr] 54 days post-implantation (mean ± SEM): 5.78E+05 ± 1.15E+05 p/s/cm2^2/sr
  Radiance [p/s/cm2^2/sr] 61 days post-implantation (mean ± SEM): 5.23E+05 ± 4.10E+04 p/s/cm2^2/sr
[4]; three doses
  tumor burden: reduced tumor burdens to background levels in the majority of animals
[4]; before first dose (day 21)
  Radiance [p/s/cm2^2/sr] 5 days post-implantation (mean ± SEM): 5.87E+05 ± 2.40E+04 p/s/cm2^2/sr
  Radiance [p/s/cm2^2/sr] 11 days post-implantation (mean ± SEM): 6.19E+05 ± 4.39E+04 p/s/cm2^2/sr
  Radiance [p/s/cm2^2/sr] 20 days post-implantation (mean ± SEM): 1.81E+06 ± 2.37E+05 p/s/cm2^2/sr
